Measured values: paper PMC10313921, “A living ex vivo platform for functional, personalized brain cancer diagnosis” (Cell Reports Medicine, 2023)

Assays:
Assay type in all cases: cell-based, human
[1] = test system: U373WT (wild-type established GBM line); test: Drug screening of U373WT tumor foci on OBSCs
Experimental: (§1) Tumor cells (0.17 μL, 25,000 cells) were seeded onto OBSCs 2h after slicing, with one tumor seeded in the center of each hemisphere for a total of two tumor foci per OBSC. BSM was changed 24h after slicing. Fluorescence images were taken 0 h, 24 h, and 96 h post-seeding for normalization of tumor size. Bioluminescence readouts were also taken at 0 h, 24 h, and 96 h post seeding for assessment of cell viability. Luciferin was added underneath the culture insert and allowed to incubate for 10 min before bioluminescence measurement on an AMI optical imaging system.
(§2) Tumor cells were seeded onto OBSCs 2h after slicing as described above. One day after tumor seeding, six concentrations of each drug were diluted in the media underneath each culture insert, or XRad was applied using an X-Rad 320 Precision X-ray machine (n = 4 tumor foci per concentration; n ≥ 24 tumor foci per drug per cell line). Three days after treatment, the bioluminescence of live tumor cells was measured using an AMI optical imager (Spectral Instruments) and dose-response curves were generated. Tumor survival was normalized to day one tumor fluorescence and compared to an untreated control group.
(§3) Several weighted parameters were factored into an overall drug sensitivity score.
(§4) For DSS parameters 1–6, therapeutic windows were calculated by comparing OBSC toxicity and tumor response at the doses where tumor kill passed through the DSS parameter (Table S1 and S3). For DSS parameter 7, the therapeutic window was calculated by comparing the slopes through the tumor EC50 and the OBSC tox EC50. For DSS parameter 8, the therapeutic window was calculated by comparing the areas under tumor kill and OBSC tox curves. Normalized therapeutic window ratios for DSS parameters 1–8 within each drug-tumor-OBSC interaction were calculated in the following manner: within each window, values ranged from +1 to −1, where values approaching +1 signify increasing tumor kill relative to normal tissue toxicity, and values approaching −1 indicate agents where tumors remained highly viable while toxicity to the normal OBSC tissue was elevated. DSS parameters 9–11 were determined based on the behavior of the tumor in response to the drug, as defined above.
(§5) All individually weighed parameters were added together to generate the DSS. Overall DSS from 0 to 100 signify increasing efficacy in tumor kill relative to OBSC toxicity, while scores from 0 to −100 describe scenarios in which tumors thrive more effectively than OBSCs for a given treatment. Dose-response values were calculated via linear interpolation of raw data, not from best-fit curve equations.

[2] = test system: U373KO (RAD18 knockout of U373WT via CRISPR); test: Drug screening of U373KO tumor foci on OBSCs; conditions: U373 KO on OBSCs
Experimental: as §1, §2, §3, §4, §5

[3] = test system: MB231Br (breast cancer metastasis to brain); test: Drug screening of MB231Br tumor foci on OBSCs
[4] = test system: PDIPG (low-passage pediatric patient-derived line); test: Drug screening of PDIPG tumor foci on OBSCs
Experimental: as §1, §2, §3, §4, §5

[5] = test system: LN229 (established GBM line); test: Drug screening of LN229 tumor foci on OBSCs
Experimental: as §1, §2, §3, §4, §5

[6] = test system: GBM8 (high-passage patient-derived GBM line); test: Drug screening of GBM8 tumor foci on OBSCs
Experimental: as §1, §2, §3, §4, §5

[7] = test system: MS21 (low-passage patient-derived GBM line); test: Drug screening of MS21 tumor foci on OBSCs
Experimental: as §1, §2, §3, §4, §5

[8] = area under the dose-response curve, trapezoidal rule
[9] = dose required to kill 10% of the tumor
[10] = dose required to kill 25% of the tumor
[11] = dose required to kill 75% of the tumor

## O=NN(CCCl)C(=O)NC1CCCCC1 [Lomustine]
[1]; Homo sapiens, U373 MG, U373 WT on OBSCs, dose required to kill 50% of the tumor
  EC50: 665 µM
[1]; Homo sapiens, U373 MG, U373 WT on OBSCs, dose required to kill 90% of the tumor
  EC90: 1960 µM
[1]; Homo sapiens, U373 MG, U373 WT on OBSCs, dosed day 1, survival via bioluminescence day 4, linear interpolation
  IC50: 665 µM
[1]; U373 WT on OBSCs
  Killing at highest dose: 9.10E-01 fraction of tumor population killed
[1]; U373 WT on OBSCs, area under the dose-response curve, trapezoidal rule
  AUC: 8.89E+02
[1]; U373 WT on OBSCs, dose required to kill 10% of the tumor
  EC10: 139 µM
[1]; U373 WT on OBSCs, dose required to kill 25% of the tumor
  EC25: 554 µM
[1]; U373 WT on OBSCs, dose required to kill 75% of the tumor
  EC75: 1380 µM
[1]; U373 WT on OBSCs, slope through the EC50
  Slope: -2.24E-03
[1]; U373 WT, scale -100 to +100, tumor kill relative to OBSC toxicity
  DSS (drug sensitivity score): 64
[2]; Homo sapiens, U373 MG, dose required to kill 50% of the tumor
  EC50: 607 µM
[2]; Homo sapiens, U373 MG, dose required to kill 90% of the tumor
  EC90: 1830 µM
[2]; Homo sapiens, U373 MG, dosed day 1, survival via bioluminescence day 4, linear interpolation
  IC50: 607 µM
[2]
  Killing at highest dose: 9.70E-01 fraction of tumor population killed
[2]; [8]
  AUC: 8.35E+02
[2]; [9]
  EC10: 83.3 µM
[2]; [10]
  EC25: 208 µM
[2]; [11]
  EC75: 1460 µM
[2]; slope through the EC50
  Slope: -5.60E-04
[3]; Homo sapiens, MB231BR on OBSCs, dose required to kill 50% of the tumor
  EC50: 1610 µM
[3]; Homo sapiens, MB231BR on OBSCs, dose required to kill 90% of the tumor
  EC90: 1940 µM
[3]; Homo sapiens, MB231Br on OBSCs, dosed day 1, survival via bioluminescence day 4, linear interpolation
  IC50: 1610 µM
[3]; MB231BR on OBSCs
  Killing at highest dose: 9.70E-01 fraction of tumor population killed
[3]; MB231BR on OBSCs, area under the dose-response curve, trapezoidal rule
  AUC: 1.96E+03
[3]; MB231BR on OBSCs, dose required to kill 10% of the tumor
  EC10: 1280 µM
[3]; MB231BR on OBSCs, dose required to kill 25% of the tumor
  EC25: 1400 µM
[3]; MB231BR on OBSCs, dose required to kill 75% of the tumor
  EC75: 1820 µM
[3]; MB231BR on OBSCs, slope through the EC50
  Slope: -1.20E-03
[4]; Homo sapiens
  EC50: 688 µM
  EC90: 1880 µM
  IC50: 688 µM
[4]; PDIPG on OBSCs
  Killing at highest dose: 9.30E-01 fraction of tumor population killed
[4]; PDIPG on OBSCs, area under the dose-response curve, trapezoidal rule
  AUC: 9.11E+02
[4]; PDIPG on OBSCs, dose required to kill 10% of the tumor
  EC10: 354 µM
[4]; PDIPG on OBSCs, dose required to kill 25% of the tumor
  EC25: 425 µM
[4]; PDIPG on OBSCs, dose required to kill 75% of the tumor
  EC75: 1310 µM
[4]; PDIPG on OBSCs, slope through the EC50
  Slope: -4.80E-04
[5]
  Killing at highest dose: 1.00E+00 fraction of tumor population killed
[5]; Homo sapiens, LN-229, dose required to kill 50% of the tumor
  EC50: 960 µM
[5]; Homo sapiens, LN-229, dose required to kill 90% of the tumor
  EC90: 1780 µM
[5]; Homo sapiens, LN-229, dosed day 1, survival via bioluminescence day 4, linear interpolation
  IC50: 960 µM
[5]; [8]
  AUC: 9.70E+02
[5]; [9]
  EC10: 417 µM
[5]; [10]
  EC25: 758 µM
[5]; [11]
  EC75: 1440 µM
[5]; slope through the EC50
  Slope: -1.24E-03
[6]; GBM8 on OBSCs
  Killing at highest dose: 1.00E+00 fraction of tumor population killed
[6]; GBM8 on OBSCs, area under the dose-response curve, trapezoidal rule
  AUC: 1.54E+01
[6]; GBM8 on OBSCs, dose required to kill 10% of the tumor
  EC10: 0.685 µM
[6]; GBM8 on OBSCs, dose required to kill 25% of the tumor
  EC25: 1.71 µM
[6]; GBM8 on OBSCs, dose required to kill 75% of the tumor
  EC75: 5.45 µM
[6]; GBM8 on OBSCs, slope through the EC50
  Slope: -1.46E-01
[6]; Homo sapiens
  EC50: 3.43 µM
  EC90: 8.71 µM
  IC50: 3.4 µM
[7]; Homo sapiens
  EC50: 1550 µM
  EC90: 1990 µM
  IC50: 1550 µM
[7]; MS21 on OBSCs
  Killing at highest dose: 9.10E-01 fraction of tumor population killed
[7]; MS21 on OBSCs, area under the dose-response curve, trapezoidal rule
  AUC: 1.61E+03
[7]; MS21 on OBSCs, dose required to kill 10% of the tumor
  EC10: 1120 µM
[7]; MS21 on OBSCs, dose required to kill 25% of the tumor
  EC25: 1280 µM
[7]; MS21 on OBSCs, dose required to kill 75% of the tumor
  EC75: 1830 µM
[7]; MS21 on OBSCs, slope through the EC50
  Slope: -9.20E-04
